Patent US20060058339A1, “Compounds modulating c-kit activity and uses therefor” (priority 2004, published 2006)

Key:
c-kit kinase domain = target: T1, c-kit kinase domain (Homo sapiens, UniProt P10721); assay: c-kit kinase activity biochemical assay (AlphaScreen PY20 or 33P radiolabeled ATP detection); conditions: as measured by at least one of AlphaScreen or 33P ATP assay; ATP 10 μM in the AlphaScreen assay; read-out: IC50, inhibition of c-kit kinase activity
T1 construct: C-Kit kinase domain (starting amino acid M551, ending amino acid K949); made in house; host or cells: E. coli
T1 sequence (P10721 552-948 limits assumed): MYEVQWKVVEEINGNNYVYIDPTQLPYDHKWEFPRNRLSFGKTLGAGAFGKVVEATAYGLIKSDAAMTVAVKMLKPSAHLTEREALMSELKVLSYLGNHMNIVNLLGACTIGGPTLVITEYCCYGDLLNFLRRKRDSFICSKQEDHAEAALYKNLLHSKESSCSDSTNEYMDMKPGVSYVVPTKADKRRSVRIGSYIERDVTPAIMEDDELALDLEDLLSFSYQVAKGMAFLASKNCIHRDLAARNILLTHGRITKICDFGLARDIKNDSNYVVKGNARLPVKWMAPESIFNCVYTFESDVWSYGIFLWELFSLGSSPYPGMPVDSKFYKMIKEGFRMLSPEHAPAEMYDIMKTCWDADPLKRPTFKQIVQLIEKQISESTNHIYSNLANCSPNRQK
Source text: Compounds 1-1, 1-2, 1-3, and 1-4 of Table 1 were similarly assayed using a ^33P radiolabeled ATP for detection (Upstate USA, Charlottesville, Va.).

[1] = system: M-07e cell line stimulated by SCF; assay: M-07e SCF-stimulated cell proliferation (CellTiter-Glo); format: cell-based; conditions: 72 h, 100 ng/ml SCF, three days, luminescence (ATP content), read-out: IC50, growth of SCF stimulated M-07e cells
Source text: As one example, M-07e cell line (DSMZ catalog #ACC 104) is stimulated by SCF, which binds and activates c-kit tyrosine kinase receptor.

[2] = system: cells with activating c-kit mutations in the catalytic region; conditions: Ma et al., 2002, Blood 99:1741-1744; cited from earlier work

| SMILES | IC50 (c-kit kinase domain) | IC50 [1] | inhibition of cells with c-kit mutations in the catalytic region [2] |
| --- | --- | --- | --- |
| Clc1ccc(CNc2ccc(Cc3c[nH]c4ncccc34)cn2)cc1 [Compound 1-2, (4-chloro-benzyl)-[5-(1H-pyrrolo[2,3-b]pyridin-3-ylmethyl)-pyridin-2-yl]-amine] | < 1000 nM | < 1000 nM |  |
| Cc1ccc(NC(=O)c2ccc(CN3CCN(C)CC3)cc2)cc1Nc1nccc(-c2cccnc2)n1 [ST1571] |  |  | did not inhibit |
| Cc1ccc(CNc2ccc(Cc3c[nH]c4ncccc34)cn2)cc1 [Compound 1-4, (4-methyl-benzyl)-[5-(1H-pyrrolo[2,3-b]pyridin-3-ylmethyl)-pyridin-2-yl]-amine] | < 1000 nM |  |  |
| Fc1ccc(CNc2ccc(Cc3c[nH]c4ncccc34)cn2)cc1 [Compound 1-3, (4-fluoro-benzyl)-[5-(1H-pyrrolo[2,3-b]pyridin-3-ylmethyl)-pyridin-2-yl]-amine] | < 1000 nM |  |  |
